The conditions of the series: Liquid; for viscosity: Falling or rolling sphere viscometry; for mass density: Vibrating tube method; for electrical conductivity: Alternating current cell with electrodes.

Data on three compounds can be found in the NIST ThermoML archive (doi:10.1016/j.jct.2013.05.019).

± gives the expanded uncertainty stated by the source.

With `CC(=O)O.CCCCN` [butylammonium acetate], the viscosity is listed as 771.69 ± 71 mPa·s (293.15 K, 101 kPa); 546.35 ± 44 mPa·s (298.15 K, 101 kPa); 397.17 ± 28 mPa·s (303.15 K, 101 kPa); 294.59 ± 18 mPa·s (308.15 K, 101 kPa); 222.24 ± 11 mPa·s (313.15 K, 101 kPa). Also, the mass density reads like this: (293.15 K, 101 kPa) 959.61 ± 0.23 kg/m3; (298.15 K, 101 kPa) 956.44 ± 0.23 kg/m3; (303.15 K, 101 kPa) 953.33 ± 0.23 kg/m3; (308.15 K, 101 kPa) 950.15 ± 0.23 kg/m3; (313.15 K, 101 kPa) 946.98 ± 0.23 kg/m3. In addition, under “298.15 K, 101 kPa”, the electrical conductivity amounted to 0.021 ± 0.001 S/m.

As to `CCCC[NH3+].O=[N+]([O-])[O-]` [n-butylammonium nitrate], the viscosity is, setting by setting: (293.15 K, 101 kPa) 111.35 ± 3.6 mPa·s; (298.15 K, 101 kPa) 89.95 ± 2.5 mPa·s; (303.15 K, 101 kPa) 73.04 ± 1.8 mPa·s; (308.15 K, 101 kPa) 60.25 ± 1.3 mPa·s; (313.15 K, 101 kPa) 50.12 ± 1.1 mPa·s. Moreover, the mass density by setting is: (293.15 K, 101 kPa) 1104.68 ± 0.31 kg/m3; (298.15 K, 101 kPa) 1101.52 ± 0.31 kg/m3; (303.15 K, 101 kPa) 1098.38 ± 0.31 kg/m3; (308.15 K, 101 kPa) 1095.26 ± 0.31 kg/m3; (313.15 K, 101 kPa) 1092.17 ± 0.3 kg/m3. Besides, the electrical conductivity (298.15 K, 101 kPa) is 0.867 ± 0.017 S/m.

Consider `O` [water], for which the viscosity (293.15 K, 101.33 kPa) is listed as 1.002 ± 0.021 mPa·s; the viscosity (298.15 K, 101.33 kPa) turned out to be 0.89 ± 0.019 mPa·s; the viscosity (303.15 K, 101.33 kPa) is given as 0.797 ± 0.017 mPa·s; the viscosity (308.15 K, 101.33 kPa) is recorded as 0.718 ± 0.015 mPa·s; the viscosity (313.15 K, 101.33 kPa) turned out to be 0.651 ± 0.014 mPa·s.

The term viscosity denotes the resistance of a fluid to flow. Usually mass density stands for the mass of a sample divided by its volume.
